The source of these data is PMC2864270 (PLoS Neglected Tropical Diseases, 2010).

Some results are limits rather than exact numbers.

Broadly, the EC50 is the concentration that produces a half-maximal response. A word on the CC50: it is the concentration at which the toxic effect on the cells reaches its halfway point.

The test system of one data set is L. major promastigote. Nature of the data set: Primary screening resazurin viability assay, L. major promastigotes. Format: cell-based, Leishmania major. The settings on record: Leishmania major; promastigotes; 10-point dose response, 2-fold dilutions from 20 µM; read-out: L. major EC50 promastigote. Here is the method: (§1) L. major MHOM/IL/81/FRIEDLIN and L. donovani MHOM/ET/67/HU3 promastigotes were cultivated at 28°C in axenic M199 culture medium (Welgene, S. Korea) supplemented with 10% heat-inactivated fetal bovine serum (FBS) (Gibco, United States) and 1% streptomycin/penicillin (Gibco, United States).
(§2) After compound addition to the assay plate (Evotec™ 384-well microplate, Germany), 20,000 L. major promastigote parasites from an exponential phase culture (∼10^7 parasites/mL) were diluted in M199, seeded in 50 µL per well using FlexDrop™ and incubated at 28°C for 28 hours, followed by the addition of 5 mM resazurin sodium salt (Sigma R7017, United States) and further incubation for 20 hours at 28°C. After a 48-hour exposure to compounds, the reference drug (EtBr) or control (1% DMSO), the parasites were fixed with 2% paraformaldehyde (PFA) and plates were read in Victor3™ (Perkin Elmer) at 530 nm (excitation) and 590 nm (emission). This fixation step is not necessary for resazurin readout, but allows flexibility in the automation schedule and increases assay robustness by decreasing metabolic variability between populations across wells and plates.
The effect of compounds on Leishmania viability was assessed by fluorometric measurement of resazurin reduction. […] Reference compounds for antileishmanial activity (EtBr, amphotericin B, miltefosine and paromomycin) were tested (Fig. 1B) as a step of the validation process. […] Assay validation was performed on three separate days using 33 microplates (384 wells/plate) containing only controls. […] After assay validation, we screened a 4,000-compound library containing a number of compounds with known pharmacological properties. […] This assay was done in duplicate and results of each concentration assay are represented as individual graphs in Fig. 1D.
(In general: The colour change of resazurin is a common sign of viable cells or microbes.)

The next data set deals with L. donovani promastigote. Nature of the data set: Resazurin viability assay, L. donovani promastigotes. Format: cell-based. The settings on record: Leishmania donovani; promastigotes; 10-point dose response, 2-fold dilutions from 20 µM; read-out: L. donovani EC50 promastigote. How it is done: as §1
as §2, with “plates. Z-factor, calculated as 1−(3×σp+3×σn)/(|μp−μn|), where μp, σp, μn and σn are the means (μ) and standard deviations (σ) of both the positive (p) and negative (n) controls, and other parameters, including DRC plates for verification of the reference drug EC50 (accepted if within the range of 3× higher or lower than a defined value from the literature), coefficient of variation not higher than 10% in the controls and edge effect evaluation, were used for screening validation and hits selection.” for “plates.”
Infection of human macrophage cells in vitro with Leishmania has been previously described as a suitable model for screening and was adopted for our purpose. The 124 active compounds selected from the secondary assay were tested in 10-point dose response with 2-fold serial dilutions starting from 20 µM against promastigotes and intracellular amastigotes of L. major and L. donovani infecting macrophages. The average Z-factor calculated per plate based on the reference drug (amphotericin B) and carrier (1% DMSO) was 0.62 for L. major infection and 0.59 for L. donovani infection, and minimum accepted Z-factor for the analysis was 0.5.

Data set [1] relates to L. major intracellular amastigotes. Nature of the data set: Intracellular amastigotes assay, L. major infecting THP-1 macrophages (image-based infection ratio). Format: cell-based. The conditions noted are these: Leishmania major, 96 h, intracellular amastigotes infecting THP-1 macrophages, 4 days incubation, read-out: L. major EC50 amastigote. Here is the method:
(§3) THP-1 cells were cultivated in suspension at a density of 10^5 to 10^6 cells/mL in RPMI (Gibco 1640, United States) medium supplemented with 10% heat-inactivated FBS and 1% streptomycin/penicillin at 37°C and 5% CO2. The differentiation of THP-1 into macrophages was induced by incubation of the cells for 48 hours with phorbol 12-myristate 13-acetate (PMA) at 50 ng/ml. For infection, late-stage L. major or L. donovani rich in metacyclic promastigotes was added to differentiated THP-1 cells (ratio of 50 parasites to 1 host cell) in Evotec™ 384-well microplates using a FlexDrop™ (Perkin Elmer) to dispense 50 µL/well. Compounds were added 24 hours after infection and microplates were incubated at 37°C and 5% CO2 for 4 days. Amphotericin B as the reference compound (positive control) at 10 µM as the EC100 and 1% DMSO (negative control) were used in all the plates for data normalization (see bellow). […] Microplates were read in an Opera confocal microscope (Perkin Elmer), enabling the determination of the infection ratio of the parasites by image analysis. […] The macrophage nuclei and internalized parasites were identified and counted if localized in the foreground previously selected (Figure S1). With this technique, extracellular parasites were not considered in the calculations, and the infection ratio was determined by the number of infected cells divided by the total number of cells after normalization based on the controls. The average infection ratios from the positive and negative controls were normalized to 0% and 100% infection, and the infection ratio read from each compound activity was proportionally distributed within this range. […]
(§4) Infection of human macrophage cells in vitro with Leishmania has been previously described as a suitable model for screening and was adopted for our purpose. […] The average Z-factor calculated per plate based on the reference drug (amphotericin B) and carrier (1% DMSO) was 0.62 for L. major infection and 0.59 for L. donovani infection, and minimum accepted Z-factor for the analysis was 0.5.

The test system of data set [2] is L. donovani intracellular amastigotes. Nature of the data set: Intracellular amastigotes assay, L. donovani infecting THP-1 macrophages (image-based infection ratio). Format: cell-based. The conditions noted are these: Leishmania donovani, 96 h, intracellular amastigotes infecting THP-1 macrophages, 4 days incubation, read-out: L. donovani EC50 amastigote. Here is the method: as §3, §4

Data set [3] in a line: Human cell toxicity test, resazurin viability. The settings on record: THP-1 cells (non-differentiated); THP-1 human cell line; read-out: Cytotoxicity CC50 THP-1. Format: cell-based. How it is done: To assess the cytotoxicity of compounds on THP-1, an acute monocytic leukemia-derived human cell line (ATCC TIB-202™), a viability assay also using resazurin reduction with minor modifications in concentration and incubation time was performed. Z-factor [15] and other parameters were used for secondary screening validation and hit exclusion.
To exclude potentially toxic compounds from the active list, we performed a secondary viability screening using the non-differentiated human macrophage cell line THP-1. Compounds that interfered with THP-1 viability at a concentration of 10 µM or lower were discarded.

On to `COc1cc(/C=N/NC(=O)c2cccc(C)c2O)ccc1OCc1ccccc1` [CA272], for which the EC50 was found to be 2700 nM in the data set with L. major promastigote, 2700 nM with L. donovani promastigote, 800 nM in data set [1] and 19000 nM in data set [2]. For the same molecule, the half-maximal cytotoxic concentration (CC50) in data set [3] is greater than 10000 nM.

Consider `Cc1nc2c(Cl)cccc2c(O)c1CN1CCCCC1C` (stereo not shown) [CH872], for which the EC50 came out at 100 nM in the data set on L. major promastigote, 50 nM in the data set with L. donovani promastigote, 300 nM in data set [1] and 60 nM in data set [2]. For the same molecule, the cytotoxic concentration (CC50) in data set [3] is greater than 10000 nM.
